{"source": "patent US20140193827A1", "about": "(TEVA PHARMACEUTICAL INDUSTRIES, LTD., priority 2013, published 2014)", "key": {"[1]": {"system": "GA-primed murine splenocytes"}, "[2]": {"system": "GA-primed murine splenocytes", "experiment": "Microarray gene expression profiling of GA-primed splenocytes reactivated ex vivo (t-test / 1-way ANOVA vs. Medium or GA-RS)", "format": "cell-based, mouse", "source_text": "All experimental procedures conformed to accepted ethical standards for use of animals in research and were in accordance with Committee for the Care and Use of Experimental Animals guidelines and approved by the Teva Institutional Animal Care and Use Committee. For these experiments, we purchased 8- to 12-week old female (Balb/c×SJL)F1 mice (Harlan, Israel). […] Single cell suspension was prepared. […] Splenocytes (125 μL 10×10^6 SPL cell/mL suspension) were added to the activator solutions and incubated for 24 hours at 37° C. Then, cells were washed, diluted with RNA stabilization solution (RNAlater® solution, Applied Biosystems), and stored at 4° C. […] RNA quality was assessed by the absorbance ratio at 260/280 on and gel electrophoresis (Experion™, Bio-Rad, Hercules, Calif.). […] Microarray hybridization, array scanning, and initial preprocessing were performed by BioRap (Technion, Haifa, Israel). […] The subsequent bioinformatics analyses were conducted in the Bioinformatics Core Facility of the National Institute for Biotechnology in the Negev, Ltd. (NIBN, Beer-Sheva, Israel). Summarization of bead-level data to gene-level signals was performed using the R package “beadarray” (45) after removal of outliers greater than 3 median absolute deviations (MADs). Between-sample quantile normalization was performed using Partek Genomics Suite (Partek, Inc., St. Louis, Missouri), followed by correction of experimental batch effects (i.e., related to differences in dates of RNA extraction and array processing) using the Partek Batch Remover™ tool. […] Fold change values were presented in linear scale. […] RNA was extracted and full gene expression analysis was preformed."}}}
{"substance": "glatiramer acetate [GA]", "values": [{"measurement": "AVG expression CYP2S1", "setting": "[1]", "value": 6.418}, {"measurement": "genes up- or down-regulated compared to medium", "setting": "[2]; FDR-adjusted p value <0.05, fold change of 1.3 or more", "value": 1474, "unit": "genes"}, {"measurement": "FOXP3 expression", "setting": "[2]; vs. Medium", "value": "over-expressed"}, {"measurement": "Fold Change CD40", "setting": "[2]; vs. Medium", "value": 1.533}, {"measurement": "Fold Change CD86", "setting": "[2]; vs. Medium", "value": 1.365}, {"measurement": "Fold Change FOXP3", "setting": "[2]; vs. Medium", "value": 1.406}, {"measurement": "Fold Change GATA3", "setting": "[2]; vs. Medium", "value": 1.877}, {"measurement": "Fold Change HLA-DMA", "setting": "[2]; vs. Medium", "value": 1.534}, {"measurement": "Fold Change HLA-DMB", "setting": "[2]; vs. Medium", "value": 1.398}, {"measurement": "Fold Change ICOS", "setting": "[2]; vs. Medium", "value": 2.164}, {"measurement": "Fold Change IFNG", "setting": "[2]; vs. Medium", "value": 16.847}, {"measurement": "Fold Change IFNGR2", "setting": "[2]; vs. Medium", "value": "−1.333"}, {"measurement": "Fold Change IL2", "setting": "[2]; vs. Medium", "value": 2.074}, {"measurement": "Fold Change IL2RA", "setting": "[2]; vs. Medium", "value": 2.457}, {"measurement": "Fold Change IL2RG", "setting": "[2]; vs. Medium", "value": "−1.386"}, {"measurement": "Fold Change IL4", "setting": "[2]; vs. Medium", "value": 4.428}, {"measurement": "Fold Change IL4R", "setting": "[2]; vs. Medium", "value": 1.578}, {"measurement": "Fold Change IL6R", "setting": "[2]; vs. Medium", "value": "−1.545"}, {"measurement": "Fold Change IL10RB", "setting": "[2]; vs. Medium", "value": "−1.323"}, {"measurement": "Fold Change IL12RB1", "setting": "[2]; vs. Medium", "value": 2.270}, {"measurement": "Fold Change IL13", "setting": "[2]; vs. Medium", "value": 1.330}, {"measurement": "Fold Change IL17A", "setting": "[2]; vs. Medium", "value": 1.451}, {"measurement": "Fold Change IL17F", "setting": "[2]; vs. Medium", "value": 2.365}, {"measurement": "Fold Change IL18", "setting": "[2]; vs. Medium", "value": "−1.383"}, {"measurement": "Fold Change IL18R1", "setting": "[2]; vs. Medium", "value": "−1.726"}, {"measurement": "Fold Change TBX21", "setting": "[2]; vs. Medium", "value": 2.654}, {"measurement": "Fold Change TGFBR2", "setting": "[2]; vs. Medium", "value": "−1.436"}, {"measurement": "Fold Change TNF", "setting": "[2]; vs. Medium", "value": 1.475}]}
